The text below walks through data of patent US7968537B2, “Pyrimidine compound and pests controlling composition containing the same” (Sumitomo Chemical Company, Limited, priority 2003, dated 2011).

In test [1] the test system is Western flower thrips (Frankliniella occidentalis). The experiment in a line: Test Example 2: Western flower thrips larvae on treated cucumber leaf. Type of test: in vivo. The note with it: 500 ppm, 20 ml/cup on cucumber; thirty larvae set free on cut first true leaf; after seven days. The procedure: A formulation of each test compound obtained according to Formulation Example 5 was diluted with water so that the active ingredient concentration came to 500 ppm to prepare a test spray liquid. The seeds of cucumber were planted in a polyethylene cup, and grown until their first foliage leaves developed, and then a test spray liquid was applied at a ratio of 20 ml/cup to the plant. After the liquid sprayed to the cucumber were dried, the first true leaf was cut off and placed on a filter paper (70 mm in diameter) impregnated with water in a polyethylene cup (110 mm in diameter). Thirty larvae of Western flower thrips (Frankliniella occidentalis) were set free on the first true leaf, which was covered with a polyethylene cup. After seven days, the number of surviving pests was examined.

Test [2] has as its system cotton aphids (Aphis gossypii). The experiment in a line: Test Example 1: spray test on cotton aphids on cucumber plants. Type of test: in vivo. The note with it: 500 ppm active ingredient, sprayed 20 ml/cup on cucumber with about 20 cotton aphids; 6th day after the application. The procedure: A formulation of a test compound obtained in Formulation Example 5 was diluted with water so that the active ingredient concentration came to 500 ppm to prepare a test spray liquid. The seeds of cucumber were planted in polyethylene cups and grown until their first foliage leaves developed, on which about 20 cotton aphids (Aphis gossypii) were made parasitic. After one day, the test spray liquid was sprayed at the rate of 20 ml/cup onto the cucumber plants. On the 6th day after the application, the number of cotton aphids was examined and the control value was determined by the following formula: Control value (%)={1−(Cb×Tai)/(Cai×Tb)}×100 wherein the variables in the formula have the following meanings: Cb: the number of insects before the treatment in the non-treated area; Cai: the number of insects at the time of observation in the non-treated area; Tb: the number of insects before the treatment in the treated area; and Tai: the number of insects at the time of observation in the treated area.

The structures appear in SMILES notation. Some results are limits rather than exact numbers.

Consider `CC#CCOc1cc(N2C[C@@H](C)C[C@H](C)C2)ncn1` (relative stereo) [Compound (44), 4-(2-butynyloxy)-6-(trans-3,5-dimethylpiperidino)pyrimidine], for which the “number of surviving pests” value in test [1] is on record as 0.
Consider `CC#CCOc1ncnc(N2CC(C)CC(C)C2)c1F` (stereo not shown) [(51), 4-(2-butynyloxy)-5-fluoro-6-(3,5-dimethylpiperidino)pyrimidine], for which the “number of surviving pests” value in test [1] came out at 0.
Same read-out and setting: next, `CC#CCOc1ncnc(N2CC(C)CC(C)C2)c1F` (stereo not shown) [Compound (4), 4-(2-butynyloxy)-5-fluoro-6-(3,5-dimethylpiperidino)pyrimidine]: 0; `CC#CCOc1cc(N2C[C@H](C)C[C@H](C)C2)ncn1` [Compound (23), 4-(2-butynyloxy)-6-(cis-3,5-dimethylpiperidino)pyrimidine]: 0.
Same read-out and setting: next, `CC#CCOc1cc(N2CCCC(C(F)(F)F)C2)ncn1` (stereo not shown) [Compound (24), 4-(2-butynyloxy)-6-(3-trifluoromethylpiperidino)pyrimidine]: 0; `CC#CCOc1ncnc(N2CCCC(C)C2)c1F` (stereo not shown) [Compound (26), 4-(2-butynyloxy)-5-fluoro-6-(3-methylpiperidino)pyrimidine]: 0; `CC#CCOc1ncnc(N2C[C@H](C)C[C@H](C)C2)c1F` [Compound (29), 4-(2-butynyloxy)-5-fluoro-6-(cis-3,5-dimethylpiperidino)pyrimidine]: 0.
Turning to `CC#CCOc1ncnc(N2CCCC(C)(C)C2)c1F` [Compound (32), 4-(2-butynyloxy)-6-(3,3-dimethylpiperidino)-5-fluoropyrimidine], the “number of surviving pests” value in test [1] is on record as 0.
Same read-out and setting: next, `CC#CCOc1ncnc(N2CCCCC2CC)c1F` (stereo not shown) [Compound (33), 4-(2-butynyloxy)-6-(2-ethylpiperidino)-5-fluoropyrimidine]: 0; `CC#CCOc1ncnc(N2CCCCCCC2)c1F` [Compound (46), 1-(6-(2-butynyloxy)-5-fluoropyrimidin-4-yl)octahydro-1H-azocine]: 0; `CC#CCOc1nc(F)nc(N2CC(C)CC(C)C2)c1Cl` (stereo not shown) [Compound (52), 5-chloro-4-(2-butynyloxy)-2-fluoro-6-(3,5-dimethylpiperidino)pyrimidine]: 0.
On the same count and under the same terms, next, `CC#CCOc1ncnc(N2CC=CCC2)c1F` [Compound (53), 1-(6-(2-butynyloxy)-5-fluoropyrimidin-4-yl)-1,2,3,6-tetrahydropyridine]: 0.
`COc1cc(N2CCCCC2)ncn1` [compound of the formula (A)]: the control value in test [2] is on record as at most 29%.
